IC50 data for 31 molecules are collected here from patent US10005774B2, “Syk inhibitors” (Gilead Sciences, Inc., priority 2013, dated 2018).

SMILES strings stand for the structures.

The target in the first assay is Syk (Homo sapiens, UniProt P43405). In words: High Throughput Syk Biochemical Assay (KinEASE TR-FRET). Particulars: TABLE D, 20 μM ATP, 1 μM biotinylated peptide, 0.015 nM Syk, 30 min at room temperature, read-out: IC50. How it is done:
High Throughput Syk Biochemical Assay
Syk activity was measured using KinEASE (Cisbio), a time-resolved fluorescence resonance energy transfer (TR-FRET) immunoassay. In this assay. Syk-catalyzes the phosporylation of a XL665-labeled peptide substrate. Europium conjugated phospho-tyrosine specific antibody binds the resulting phosphorylated peptide. Formation of phosphorylated peptide is quantified by TR-FRET with Europium as the donor and XL665 the acceptor in a 2-step endpoint assay. In brief, test compounds serially diluted in DMSO were delivered into Corning white, low volume, non-binding 384 well plates using the Echo 550 acoustic liquid dispenser (Labcyte®). Syk enzyme and substrates were dispensed into assay plates using a Multi-Flo (Bio-Tek Instruments). […] Percent inhibition was calculated as follows: % Inhibition=100×(RatioSample−Ratio0% Inhibition)/(Ratio100% Inhibition−Ratio0% Inhibition)
For orientation: TR-FRET usually uses a lanthanide donor and a delayed reading to cut background.
One may read the IC50 as the point on the concentration scale where inhibition reaches its midpoint. Take `C[C@@H](Oc1nc(-c2cc[nH]c(=O)c2)cc2ncn(C)c12)[C@H]1CNC(=O)C1` [4-(3-methyl-4-((R)-1-((R)-5-oxopyrrolidin-3-yl)ethoxy)-3H-imidazo[4,5-c]pyridin-6-yl)pyridin-2(1H)-one]: the IC50 was 97.5 nM. On the same count and under the same terms, to `COc1ccc(-c2cc3ncn(C(C)C)c3c(O[C@H](C)[C@H]3CNC(=O)C3)n2)cc1OC` [(R)-4-((R)-1-(6-(3,4-dimethoxyphenyl)-3-isopropyl-3H-imidazo[4,5-c]pyridin-4-yloxy)ethyl)pyrrolidin-2-one] belongs 3.39 nM; to `CCn1ccc(-c2cc(O[C@H](C)[C@H]3CNC(=O)C3)c3scnc3c2)n1` [(R)-4-((R)-1-((5-(1-ethyl-1H-pyrazol-3-yl)benzo[d]thiazol-7-yl)oxy)ethyl)pyrrolidin-2-one], 3.36 nM. With `Cc1nn(C)c2ccc(-c3cc4ncn(C)c4c(O[C@H](C)[C@H]4CNC(=O)C4)n3)cc12` [(R)-4-((R)-1-((6-(1,3-dimethyl-1H-indazol-5-yl)-3-methyl-3H-imidazo[4,5-c]pyridin-4-yl)oxy)ethyl)pyrrolidin-2-one], the half-maximal inhibitory concentration (IC50) was determined as 10.5 nM. Same read-out and setting: to `COc1ccc(-c2cc3ncn(C4CC4)c3c(O[C@H](C)[C@H]3CNC(=O)C3)n2)cc1OC` [(R)-4-((R)-1-(3-cyclopropyl-6-(3,4-dimethoxyphenyl)-3H-imidazo[4,5-c]pyridin-4-yloxy)ethyl)pyrrolidin-2-one] belongs 1.6 nM; to `C[C@@H](Oc1nc(-c2cccc3scnc23)cc2ncn(C)c12)[C@H]1CNC(=O)C1` [(R)-4-((R)-1-(6-(benzo[d]thiazol-4-yl)-3-methyl-3H-imidazo[4,5-c]pyridin-4-yloxy)ethyl)pyrrolidin-2-one], 184 nM.

For the molecule `COc1ccc(-c2cc(O[C@H](C)[C@H]3CNC(=O)C3)c3scnc3c2)nc1OC` (stereo in doubt) [(R)-4-((R)-1-((5-(5,6-dimethoxypyridin-2-yl)benzo[d]thiazol-7-yl)oxy)ethyl)pyrrolidin-2-one], the IC50 was found to be 0.689 nM.

For the molecule `Cn1cnc2cc(-c3cnn(C(C)(C)C)c3)nc(O[C@H](CC(F)F)[C@H]3CNC(=O)C3)c21` [(R)-4-((R)-1-(6-(1-tert-butyl-1H-pyrazol-4-yl)-3-methyl-3H-imidazo[4,5-c]pyridin-4-yloxy)-3,3-difluoropropyl)pyrrolidin-2-one], the IC50 turned out to be 94.8 nM. The same measure, in the same setting: the result for `C[C@@H](Oc1nc(-c2cnn(C(C)(C)C)c2)cc2ncn(C(F)F)c12)[C@H]1CNC(=O)C12CC2` [(R)-7-((R)-1-((6-(1-(tert-butyl)-1H-pyrazol-4-yl)-3-(difluoromethyl)-3H-imidazo[4,5-c]pyridin-4-yl)oxy)ethyl)-5-azaspiro[2.4]heptan-4-one] reads 35.1 nM. The same measure, in the same setting: to `C[C@@H](Oc1nc(-c2csc(C(C)(C)C)n2)cc2ncn(C)c12)[C@H]1CNC(=O)C1` [(R)-4-((R)-1-(6-(2-tert-butylthiazol-4-yl)-3-methyl-3H-imidazo[4,5-c]pyridin-4-yloxy)ethyl)pyrrolidin-2-one] belongs 19.3 nM. Turning to `C[C@@H](Oc1nc(-c2cnc(C(C)(C)C)s2)cc2ncn(C)c12)[C@H]1CNC(=O)C1` [(R)-4-((R)-1-(6-(2-tert-butylthiazol-5-yl)-3-methyl-3H-imidazo[4,5-c]pyridin-4-yloxy)ethyl)pyrrolidin-2-one], the IC50 was determined as 9.73 nM. The same measure, in the same setting: to `COc1ccc(-c2cc(O[C@H](C)[C@H]3CNC(=O)C3)c3c(C)cnn3c2C)cc1OC` [(R)-4-((R)-1-((6-(3,4-dimethoxyphenyl)-3,7-dimethylpyrazolo[1,5-a]pyridin-4-yl)oxy)ethyl)pyrrolidin-2-one] belongs 53.7 nM; to `COc1ccc(-c2cc3ncn(C4CCC4)c3c(O[C@H](C)[C@H]3CNC(=O)C3)n2)cc1OC` [(R)-4-((R)-1-(3-cyclobutyl-6-(3,4-dimethoxyphenyl)-3H-imidazo[4,5-c]pyridin-4-yloxy)ethyl)pyrrolidin-2-one], 23.5 nM; to `C[C@@H](Oc1cc(-c2cnn(C(C)(C)C)c2)cc2ncsc12)[C@H]1CNC(=O)C1` (stereo in doubt) [(R)-4-((R)-1-((5-(1-(tert-butyl)-1H-pyrazol-4-yl)benzo[d]thiazol-7-yl)oxy)ethyl)pyrrolidin-2-one], 0.894 nM.

With `C[C@@H](Oc1nc(-c2ccc(N3CCN(S(C)(=O)=O)CC3)cc2)cc2ncn(C)c12)[C@H]1CNC(=O)C1` [(R)-4-((R)-1-(3-methyl-6-(4-(4-(methylsulfonyl)piperazin-1-yl)phenyl)-3H-imidazo[4,5-c]pyridin-4-yloxy)ethyl)pyrrolidin-2-one], the 50% inhibitory concentration (IC50) was determined as 4.46 nM.

For `Cc1cc(-c2cc3ncn(C)c3c(O[C@H](C)[C@H]3CNC(=O)C3)n2)n[nH]1` [(R)-4-((R)-1-(3-methyl-6-(5-methyl-1H-pyrazol-3-yl)-3H-imidazo[4,5-c]pyridin-4-yloxy)ethyl)pyrrolidin-2-one], the IC50 came to 22.8 nM. Take `C[C@@H](Oc1nc(-c2ccc3c(cnn3C)c2)cc2ncn(C)c12)[C@H]1CNC(=O)C1` [(R)-4-((R)-1-((3-methyl-6-(1-methyl-1H-indazol-5-yl)-3H-imidazo[4,5-c]pyridin-4-yl)oxy)ethyl)pyrrolidin-2-one]: the IC50 came to 9.62 nM.

On to `C[C@@H](Oc1cc(-c2ccc(N3CCN(C4COC4)CC3)cn2)cc2ncsc12)[C@H]1CNC(=O)C1` (stereo in doubt) [(R)-4-((R)-1-((5-(5-(4-(oxetan-3-yl)piperazin-1-yl)pyridin-2-yl)benzo[d]thiazol-7-yl)oxy)ethyl)pyrrolidin-2-one], for which the IC50 is 1.73 nM. On the same count and under the same terms, to `Cn1cnc2cc(-c3cnn(C(C)(C)C)c3)nc(O[C@H](CF)[C@H]3CNC(=O)C3)c21` [(R)-4-((S)-1-(6-(1-tert-butyl-1H-pyrazol-4-yl)-3-methyl-3H-imidazo[4,5-c]pyridin-4-yloxy)-2-fluoroethyl)pyrrolidin-2-one] belongs 20.1 nM; to `C[C@@H](Oc1nc(-c2ccc(N3CCOCC3)nc2)cc2ncn(C)c12)[C@H]1CNC(=O)C1`, 11.5 nM.

The same assay, now with this note: table 'ALL NEW COMPOUNDS IN 2014', 20 μM ATP, 1 μM biotinylated peptide, 0.015 nM Syk, 30 min at room temperature, read-out: Syk IC50.
`C[C@@H](Oc1cc(-c2ccn(C)n2)cc2ncn(C3CC3)c12)[C@H]1CNC(=O)C1` [(R)-4-((R)-1-((1-cyclopropyl-5-(1-methyl-1H-pyrazol-3-yl)-1H-benzo[d]imidazol-7-yl)oxy)ethyl)pyrrolidin-2-one]: the 50% inhibitory concentration (IC50) was 10.6 nM. Same read-out and setting: to `C[C@@H](Oc1nc(-c2ccc3c(c2)NCC3(C)C)cc2ncn(C3CC3)c12)[C@H]1CNC(=O)C1` [(R)-4-((R)-1-((3-cyclopropyl-6-(3,3-dimethylindolin-6-yl)-3H-imidazo[4,5-c]pyridin-4-yl)oxy)ethyl)pyrrolidin-2-one] belongs 2.33 nM; to `C[C@@H](Oc1cc(-c2ccnn2C2CCOCC2)cc2ncn(C3CC3)c12)[C@H]1CNC(=O)C1` [(R)-4-((R)-1-((1-cyclopropyl-5-(1-(tetrahydro-2H-pyran-4-yl)-1Hpyrazol-5-yl)-1H-benzo[d]imidazol-7-yl)oxy)ethyl)pyrrolidin-2-one], 411 nM.

Regarding `C[C@@H](Oc1cc(-c2ccn(C(C)(C)C)n2)cc2ncn(C3CC3)c12)[C@H]1CNC(=O)C1` [(R)-4-((R)-1-((5-(1-(tert-butyl)-1H-pyrazol-3-yl)-1-cyclopropyl-1H-benzo[d]imidazol-7-yl)oxy)ethyl)pyrrolidin-2-one], the IC50 came out at 5.01 nM. In the case of `COc1cc(-c2cc3ncn(C4CC4)c3c(O[C@H](C)[C@H]3CNC(=O)C3)n2)cnc1OC` [(R)-4-((R)-1-((3-cyclopropyl-6-(5,6-dimethoxypyridin-3-yl)-3H-imidazo[4,5-c]pyridin-4-yl)oxy)ethyl)pyrrolidin-2-one], the IC50 was found to be 8.38 nM. The same measure, in the same setting: to `Cc1cc(-c2cc3ncn(C4CC4)c3c(O[C@H](C)[C@H]3CNC(=O)C3)n2)ccc1N1CCN(C2COC2)CC1` [(R)-4-((R)-1-((3-cyclopropyl-6-(3-methyl-4-(4-(oxetan-3-yl)piperazin-1-yl)phenyl)-3H-imidazo[4,5-c]pyridin-4-yl)oxy)ethyl)pyrrolidin-2-one] belongs 1.44 nM; to `Cc1nc(-c2cc(O[C@H](C)[C@H]3CNC(=O)C3)c3c(c2)ncn3C2CC2)cn1C` [(R)-4-((R)-1-((1-cyclopropyl-5-(1,2-dimethyl-1H-imidazol-4-yl)-1H-benzo[d]imidazol-7-yl)oxy)ethyl)pyrrolidin-2-one], 6.07 nM; to `C[C@@H](Oc1cc(-c2ccc3c(c2)NCCN3C)cc2ncn(C3CC3)c12)[C@H]1CNC(=O)C1` [(R)-4-((R)-1-((1-cyclopropyl-5-(1-methyl-1,2,3,4-tetrahydroquinoxalin-6-yl)-1H-benzo[d]imidazol-7-yl)oxy)ethyl)pyrrolidin-2-one], 3.83 nM.

For `Cc1nn(C)c2ccc(-c3cc4ncn(C5CC5)c4c(O[C@H](C)[C@H]4CNC(=O)C4)n3)cc12` [(R)-4-((R)-1-((3-cyclopropyl-6-(1,3-dimethyl-1H-indazol-5-yl)-3H-imidazo[4,5-c]pyridin-4-yl)oxy)ethyl)pyrrolidin-2-one], the IC50 is 3.46 nM.

Consider `C[C@@H](Oc1cc(-c2cnn(C(C)(C)CO)c2)cc2ncn(C3CC3)c12)[C@H]1CNC(=O)C1` [(R)-4-((R)-1-((1-cyclopropyl-5-(1-(1-hydroxy-2-methylpropan-2-yl)-1H-pyrazol-4-yl)-1H-benzo[d]imidazol-7-yl)oxy)ethyl)pyrrolidin-2-one], for which the IC50 was found to be 1.99 nM. On the same count and under the same terms, to `C[C@@H](Oc1cc(-c2ccc(N3CCN(C4COC4)CC3)c(C#N)c2)cc2ncn(C3CC3)c12)[C@H]1CNC(=O)C1` [5-(1-cyclopropyl-7-((R)-1-((R)-5-oxopyrrolidin-3-yl)ethoxy)-1H-benzo[d]imidazol-5-yl)-2-(4-(oxetan-3-yl)piperazin-1-yl)benzonitrile] belongs 3.2 nM.
